Measured values reported in article PMC4414309, “Target Modulation by a Kinase Inhibitor Engineered to Induce a Tandem Blockade of the Epidermal Growth Factor Receptor (EGFR) and c-Src: The Concept of Type III Combi-Targeting” (PLoS ONE, 2015).

Assays:
[1] = system: ERK1/2 phosphorylation in 4T1 tumours; assay: Pharmacodynamics in 4T1 tumours, ERK1/2 phosphorylation; conditions: i.v., AL776 40 mg/kg, gefitinib + dasatinib 20 mg/kg each
Method: (§2) Mice were implanted with 4T1 mammary tumour cells, 15 million cells/flank (suspended in 200 μL PBS), subcutaneously.
(§3) Mice were sacrificed 1h or 24h after treatment and their tumours were collected and snap frozen at -80°C for further analysis using western blots. Tumours were crushed using a mortar/pestle chilled using liquid nitrogen and lysed with RIPA buffer diluted to a 1X concentration and supplemented with 1mM PMSF (Cell Signaling Technology, USA). Western blot analysis was carried out with the tumour samples, similar to the method described earlier.

phospho-Src (Y416) = assay: Western blot of c-Src phosphorylation in cells; type: cell-based, mouse
Method: (§1) NIH3T3-Her14 and 4T1 cells grown in 10% FBS containing media were plated (~ 1 x 10^6 cells/well) in 6-well plates and allowed to attach overnight (37°C, 5% CO2). The cells were rinsed twice with PBS twenty-four hours later and starved overnight on addition of serum-free media. Thereafter, they were treated with different doses of AL776 for 2 hours, washed with PBS (twice) and stimulated with 50 ng/ml EGF for 30 min at 37°C. Cells were washed, detached by scraping in ice-cold PBS and collected by centrifugation for 15 min at 3000 rpm. Cell pellets were re-suspended in cold lysis buffer 50 mM Tris-HCl pH 7.5; 150 mM NaCl; 1% Nonidet P-40, 1 mM EDTA; 5 mM NaF; 1 mM Na3VO4; protease inhibitor tablet (Roche Biochemicals, Laval, Canada)]. Lysates were kept on ice for 1 h and collected by centrifugation at 13,000 rpm for 20 min at 4°C. The concentration of protein was determined using the Bio-Rad protein assay kit (Bio-Rad laboratories, Hercules, CA). Equal amounts of proteins were loaded, resolved on 10% SDS-PAGE and thereafter transferred to a polyvinylidenedifluoride (PVDF) membrane (Milipore, Bedford, MA). […]

NIH3T3 wild type cells = assay: Growth inhibition, sulforhodamine B (SRB) assay, NIH3T3 wild type; conditions: Mus musculus, NIH3T3, 120 h, read-out: IC50 growth inhibition NIH3T3 – Wt
Method: (§4) Growth inhibition was measured in cells using the sulforhodamine B (SRB) assay [48]. […] The plates were subsequently rinsed with 1% acetic acid, and allowed to dry overnight. […] The results were analyzed using GraphPad Prism 6.0 (GraphPadSoftware, Inc., San Diego, CA) and the sigmoidal dose response curve was used to determine IC50 values. Each experiment was carried out at least four times, in triplicate.

4T1 tumours = type: in vivo; conditions: 40 mg/kg i.v. once/day for 5 days
[2] = LC-MS analysis of AL776 hydrolysis in plasma in vivo; set-up: species or system CD-1 mice
Method: CD-1 mice were divided into groups of three and treated with 80 mg/kg of AL776, injected intraperitoneally (i.p) or intravenously (i.v). Mice were sacrificed and their plasma was collected for further analysis after 0, 5, 15 and 30 min after drug treatment. Plasma samples were extracted using twice the volume of methanol and lysed at 13,000 rpm for 30 min at 4°C. The resulting supernatant from each sample was collected, filtered and evaporated to dryness before reconstituting in 100 μL of methanol. LC-MS analyses were performed on a Synapt G2-S instrument coupled with an Acquity UPLC Class I system both from Waters. Elution rate was set at 500 μL/min using an Eclipse XDB C8, 3.5 um, 2.1 x 100 mm chromatographic column from Agilent Technologies. The experiments were performed with the following eluents: 0.1% aqueous formic acid (eluent A) and methanol (eluent B). The initial mobile phase was 30% B, which was maintained for 0.2 min at the beginning of the run. The following gradient elution was subsequently applied: 30 to 50% B from 0.2 to 4 min; 50 to 80% B from 4 to 10 min; held at 80% B from 10 to 11 min. Thereafter, eluent B was decreased to 30% in 0.2 min and held constant for up to 15 min to allow the column to equilibrate. Each sample was diluted with methanol in order to avoid detector saturation and […] aliquots of the resulting solutions were injected. Analyses were performed with the electrospray interface in positive ion mode and mass spectra acquired from m/z 100 to 1200. For accurate mass determination, Leucine Enkephalin was used as lock mass. The MassLynx software was used for instrument control, data acquisition and data processing.

[3] = system: NIH3T3-Her14 (EGFR transfected) cells; assay: Absorption and hydrolysis kinetics of AL776 in cells (HPLC); type: in vitro ADME, mouse
Method: NIH3T3-Her14 cells were seeded in 6-well plates (1 x 10^6 cells/well) and grown in DMEM with 10% FBS for 24 h. Cells were then treated with 25 μM of AL776 and incubated at 37°C for 1h, 2h, 6h, 24h or 48h. The media was collected and extracted using twice the volume of methanol, on ice and centrifuged for 20 min at 13,000 rpm at 4°C. The resulting supernatant was filtered, evaporated to dryness and reconstituted with 100 μL of methanol. Cells were collected using trypsin and the cell pellet obtained was rinsed once with PBS and lysed with methanol (500 μL /tube) on ice for 1h. The lysate was centrifuged at 13,000 rpm for 20 min at 4°C and the resulting supernatant was collected into a separate tube and the remaining pellet was subjected to lysis two more times (250 μL /tube). The supernatant from each lysis step were pooled all together, filtered, evaporated to dryness and resuspended in 100 μL of methanol before further analyzing the samples. HPLC analysis was performed using a ACE 5 C18 5 μm column (150 mmx4.6 mm) under elution conditions of gradient 70–75% methanol:water for the first 5 min and isocratic methanol elution until 30 min, using a 0.75 mL/min flow rate. Analyses were performed using a Thermoquest P4000 equipped with a UV2000 detector and an AS300 Autosampler.

phospho-EGFR (Y1068) = assay: Western blot of EGFR phosphorylation in cells; type: cell-based, mouse
Method: as §1

4T1 cells = assay: Growth inhibition, SRB assay, 4T1; conditions: Mus musculus, 4T1, 120 h, read-out: IC50 growth inhibition 4T1
Method: as §4

[4] = system: EGFR phosphorylation in 4T1 tumours; assay: Pharmacodynamics in 4T1 tumours, EGFR phosphorylation; conditions: i.v., AL776 40 mg/kg, gefitinib + dasatinib 20 mg/kg each
Method: as §2, §3

[5] = NIH3T3-Her14 and 4T1 cells, 2 h drug, EGF 50 ng/ml 30 min

## Cc1nc(Nc2ncc(C(=O)Nc3c(C)cccc3Cl)s2)cc(N2CCN(CCOC(=O)CCC(=O)OCCN(C)Cc3ccc(C(=O)Nc4ccc5ncnc(Nc6cccc(Cl)c6)c5c4)cc3)CC2)n1 [AL776]
[1]; 1h post-administration
  Inhibition of ERK1/2 phosphorylation in tumours: strongly inhibited
[1]; 24 h post-treatment
  Inhibition of ERK1/2 phosphorylation in tumours: reversed
phospho-Src (Y416); [5]
  Concentration of maximal inhibition of c-Src phosphorylation: 1 µM
phospho-Src (Y416); in cells
  Concentration of robust inhibition of c-Src phosphorylation in cells: 0.25 to 1 µM
NIH3T3 wild type cells
  IC50: 7.6 ± 3 µM
4T1 tumours
  Tumour mass at end of study, control versus treated: no difference observed
4T1 tumours; monitored two weeks
  Effect on tumour growth (tumour volume): unable to block tumour growth
[2]; 80 mg/kg i.p., early time points
  Intact AL776 in plasma: no intact AL776 found in plasma
[2]; 80 mg/kg i.v., 30 min post-administration
  Intact AL776 in plasma: barely detectable levels
[3]; 25 μM, 24–48h
  Detection of AL776 in cells and extracellular medium: detectable inside the cells but not in the extracellular medium
[3]; 24h
  Intact AL776 found in the cells: 50%
phospho-EGFR (Y1068); [5]
  Concentration of maximal inhibition of EGFR phosphorylation: 1 µM
phospho-EGFR (Y1068); in cells
  Concentration of robust inhibition of EGFR phosphorylation in cells: 0.25 to 1 µM
4T1 cells
  IC50: 70 ± 10 nM
[4]; 1h post-administration
  Inhibition of EGFR phosphorylation in tumours: strong blockade
[4]; 24 h post-treatment
  Inhibition of EGFR phosphorylation in tumours: reversed
